Results published in ChEMBL document CHEMBL1122653, “Substituted (omega-aminoalkoxy) stilbene derivatives as a new class of anticonvulsants” (1984).

How the values were obtained:
Mus musculus [1] = assay: Ability to suppress PTZ (pentylenetetrazole ) induced tonic extensor convulsion in mice after oral administration at a dose 50 mg/kg; assay type: functional
Mus musculus [2] = assay: Ability to suppress maximal electroshock induced tonic extensor convulsion in mice after oral administration at 50 mg/kg; assay type: functional
Mus musculus [3] = assay: Ability to suppress PTZ (pentylenetetrazole) induced tonic extensor convulsion in mice after oral administration at a dose 50 mg/kg; assay type: functional
Mus musculus [4] = assay: Ability to suppress PTZ (pentylenetetrazole) induced tonic extensor convulsion in mice after oral administration at a dose 25 mg/kg; assay type: functional
Mus musculus [5] = assay: Ability to suppress MES (maximal electroshock ) induced tonic extensor convulsion in mice after oral administration at a dose 100 mg/kg; assay type: functional
Mus musculus [6] = assay: Ability to suppress MES (maximal electroshock ) induced tonic extensor convulsion in mice after oral administration of the compound; assay type: functional
Mus musculus [7] = assay: Ability to suppress PTZ (pentylenetetrazole ) induced tonic extensor convulsion in mice after oral administration of the compound; assay type: functional
Mus musculus [8] = assay: Ability to suppress MES (maximal electroshock) induced tonic extensor convulsion in mice after oral administration at a dose 50 mg/kg; assay type: functional
Mus musculus [9] = assay: Ability to suppress PTZ (pentylenetetrazole) induced tonic extensor convulsion in mice after oral administration of the compound; assay type: functional
Rattus norvegicus [10] = species on record: Rattus norvegicus; assay: Muscle-relaxant action in vertical screen method.; assay type: functional
Rattus norvegicus [11] = species on record: Rattus norvegicus; assay: Ability to suppress PTZ (pentylenetetrazole) induced clonic convulsions seizures in male Wistar rats; assay type: functional
[12] = Ratio of the dose showing muscle relaxant action in rats and the dose suppressing MES induced seizures in rats; assay type: functional
Rattus norvegicus [13] = species on record: Rattus norvegicus; assay: Ability to suppress MES ( maximal electroshock ) induced seizures in male Wistar rats; assay type: functional
Rattus norvegicus [14] = species on record: Rattus norvegicus; assay: Ability to suppress MES (maximal electroshock) induced seizures in male Wistar rats; assay type: functional
Rattus norvegicus [15] = species on record: Rattus norvegicus; assay: Ratio of the dose showing muscle relaxant action in rats and the dose suppressing MES induced seizures in rats
Rattus norvegicus [16] = species on record: Rattus norvegicus; assay: Muscle-relaxant action in vertical screen method; assay type: functional
Rattus norvegicus [17] = species on record: Rattus norvegicus; assay: Ability to suppress PTZ (convulsions seizures in male Wistar rats; assay type: functional

Structure (SMILES) | inhibition in vivo at 50 mg/kg (Mus musculus [1]) | inhibition in vivo at 50 mg/kg (Mus musculus [2]) | further results
CN(C)CCCCOc1ccccc1/C=C/c1cccc(F)c1 | 12.5% |  | 
CC1CCCN(CCCCOc2ccccc2/C=C/c2ccccc2)C1 (stereo not given) |  | 12.5% | 
CN(C)CCCOc1ccccc1/C=C/c1ccccc1 |  | 14.2% | inhibition in vivo at 50 mg/kg (Mus musculus [3]): 87.5%
CCCOC1CCCN(CCCCOc2ccccc2/C=C/c2ccccc2)C1 (stereo not given) |  | 0% | 
CN1CCN(CCCCOc2ccccc2/C=C/c2ccccc2F)CC1 |  | 0% | 
CN(C)CCCCOc1ccccc1/C=C/c1ccccc1F | 17% |  | 
CN(C)CCCCCOc1ccccc1/C=C/c1ccccc1 |  |  | inhibition in vivo at 25 mg/kg (Mus musculus [4]): 75%; inhibition in vivo at 100 mg/kg (Mus musculus [5]): 81%
OCC1CCCN(CCCCOc2ccccc2/C=C/c2ccccc2)C1 (stereo not given) |  | 12.5% | 
CN1CCN(CCCCOc2ccccc2/C=C/c2ccccc2)CC1.Cl.Cl |  |  | ED50 (Mus musculus [6]): 31.1 mg/kg; ED50 (Mus musculus [7]): 11.1 mg/kg; inhibition in vivo at 50 mg/kg (Mus musculus [8]): 0%
CCOC1CCCN(CCCCOc2ccccc2/C=C/c2ccccc2)C1.Cl (stereo not given) |  |  | ED50 (Mus musculus [6]): 17.5 mg/kg; ED50 (Mus musculus [9]): 9.8 mg/kg
CC(=O)OC1CCCN(CCCCOc2ccccc2/C=C/c2ccccc2)C1.Cl (stereo not given) |  |  | ED50 (Mus musculus [6]): 18.7 mg/kg; ED50 (Mus musculus [9]): 7.9 mg/kg
OC1CCN(CCCCOc2ccccc2/C=C/c2ccccc2)CC1 | 50% | 0% | 
COC1CCCN(CCCCOc2ccccc2/C=C/c2ccccc2)C1.Cl (stereo not given) |  |  | ED50 (Mus musculus [6]): 12.6 mg/kg; ED50 (Mus musculus [9]): 9.3 mg/kg
COc1cccc(OCCCCN2CCN(C)CC2)c1/C=C/c1ccccc1.Cl.Cl |  | 42.9% | ED50 (Mus musculus [7]): 50 mg/kg
CN1CCN(CCCCOc2ccccc2/C=C/c2ccc(F)cc2)CC1.Cl.Cl |  |  | ED50 (Mus musculus [6]): 39 mg/kg; ED50 (Mus musculus [7]): 17.7 mg/kg
Cl.OC1CCCN(CCCCOc2ccccc2/C=C/c2ccccc2)C1 (stereo not given) |  |  | ED50 (Mus musculus [6]): 20 mg/kg; ED50 (Rattus norvegicus [10]): > 300 mg/kg; ED50 (Rattus norvegicus [11]): 248 mg/kg; Therapeutic index [12]: >24; ED50 (Rattus norvegicus [13]): 12.5 mg/kg
Cl.OC1CCCN(CCCCOc2ccccc2/C=C/c2ccc(F)cc2)C1 (stereo not given) |  |  | ED50 (Mus musculus [6]): 21.9 mg/kg; ED50 (Mus musculus [9]): 8.8 mg/kg
Cl.OC1CCCN(CCCCOc2ccccc2/C=C/c2cccc(F)c2)C1 (stereo not given) |  |  | ED50 (Mus musculus [6]): 38 mg/kg
O=C(O)C1CCCN(CCCCOc2ccccc2/C=C/c2ccccc2)C1 (stereo not given) |  | 12.5% | 
COC(=O)C1CCCN(CCCCOc2ccccc2/C=C/c2ccccc2)C1 (stereo not given) |  | 0% | 
C(=C\c1ccccc1OCCCCN1CCOCC1)/c1ccccc1 | 87.5% | 14.3% | 
CNCCCCOc1ccccc1/C=C/c1ccccc1.Cl |  |  | ED50 (Mus musculus [6]): 118 mg/kg
Cc1ccccc1/C=C/c1ccccc1OCCCCN(C)C | 16.7% |  | 
COc1ccccc1/C=C/c1ccccc1OCCCCN(C)C | 62.5% | 0% | 
C(=C\c1ccccc1OCCCCN1CCCCC1)/c1ccccc1 |  | 42.9% | inhibition in vivo at 50 mg/kg (Mus musculus [3]): 100%

Structure (SMILES) | inhibition in vivo at 50 mg/kg (Mus musculus [1]) | inhibition in vivo at 50 mg/kg (Mus musculus [2]) | further results
CCCN(CCC)CCCCOc1ccccc1/C=C/c1ccccc1 |  | 0% | 
C(=C\c1ccccc1OCCCCN1CCCC1)/c1ccccc1 | 87.5% | 42.9% | 
CCN(CC)CCCCOc1ccccc1/C=C/c1ccccc1.Cl |  |  | ED50 (Mus musculus [6]): 82 mg/kg; ED50 (Mus musculus [7]): 11.5 mg/kg
CN(C)CCCCOc1ccccc1/C=C/c1ccc(F)cc1.Cl |  |  | ED50 (Mus musculus [7]): 15.4 mg/kg; inhibition in vivo at 100 mg/kg (Mus musculus [5]): 14.3%
COC1CCCN(CCCCOc2ccccc2/C=C/c2ccc(F)cc2)C1 (stereo not given) |  | 12.5% | 
CN(C)CCN(C)CCCCOc1ccccc1/C=C/c1ccccc1 |  | 0% | 
CC(=O)N1CCN(CCCCOc2ccccc2/C=C/c2ccccc2)CC1 | 12.5% | 0% | 
C(=C\c1ccccc1OCCCCN1CCNCC1)/c1ccccc1 | 0% | 0% | 
CN(C)CCCCOc1ccc(/C=C/c2ccccc2)cc1 |  | 12.5% | 
CN(C)CCOc1ccccc1/C=C/c1ccccc1 |  |  | inhibition in vivo at 50 mg/kg (Mus musculus [3]): 75%
CCCN1CCN(CCCCOc2ccccc2/C=C/c2ccccc2)CC1 | 87.5% | 42.9% | 
CN(C)CCCCOc1cccc(/C=C/c2ccccc2)c1 |  | 0% | 
CCN1CCN(CCCCOc2ccccc2/C=C/c2ccccc2)CC1 |  | 33.3% | 
CN(C)CCCCOc1ccccc1/C=C/c1cccc(Cl)c1 | 23.9% | 14.3% | 
NC(=O)C1CCCN(CCCCOc2ccccc2/C=C/c2ccccc2)C1 (stereo not given) |  | 0% | 
CN(C)CCCCOc1ccccc1/C=C/c1ccccc1Cl | 50% | 14.3% | 
CN(C)CCCCOc1ccccc1/C=C/c1ccc(Cl)cc1 | 62.5% | 0% | 
CN1CCN(CCCCOc2ccccc2/C=C/c2ccc(Cl)c(Cl)c2)CC1 | 0% | 0% | 
CN1CCN(CCCCOc2ccccc2/C=C/c2cccc(Cl)c2)CC1 | 50% | 0% | 
OC1CCCN(CCCCOc2ccc(Cl)cc2/C=C/c2ccccc2)C1 (stereo not given) |  | 12.5% | 
COc1cccc(/C=C/c2ccccc2)c1OCCCCN(C)C |  | 57.1% | ED50 (Mus musculus [7]): 21.6 mg/kg
OC1CCCN(CCCCOc2ccccc2/C=C/c2cccc(Cl)c2)C1 (stereo not given) |  | 12.5% | 
NC(=O)N1c2ccccc2C=Cc2ccccc21 [CARBAMAZEPINE] |  |  | ED50 (Rattus norvegicus [10]): 120 mg/kg; ED50 (Rattus norvegicus [14]): 32 mg/kg; ED50 (Rattus norvegicus [11]): 300 mg/kg; Therapeutic index (Rattus norvegicus [15]): 3.75
O=C1NC(=O)C(c2ccccc2)(c2ccccc2)N1 [PHENYTOIN] |  |  | ED50 (Rattus norvegicus [16]): > 250 mg/kg; ED50 (Rattus norvegicus [17]): 250 mg/kg; Therapeutic index [12]: >6.25; ED50 (Rattus norvegicus [13]): 40 mg/kg
